As usually defined, the IC50 is the midpoint of a concentration-inhibition curve.

Structures are written as SMILES.

The experiment deals with human Nav1.7 (Homo sapiens (Human), UniProt Q15858). Briefly: FRET-based membrane potential assay, recombinant human sodium channel Nav1.7. It counts as cell-based. The note with it: HEK293 cells stably expressing recombinant human Nav1.7; depolarization with veratridine (EC80) + scorpion venom. On the procedure: FRET-Based Membrane Potential Assays.
Chain of human Nav1.7 (Q15858 whole entry): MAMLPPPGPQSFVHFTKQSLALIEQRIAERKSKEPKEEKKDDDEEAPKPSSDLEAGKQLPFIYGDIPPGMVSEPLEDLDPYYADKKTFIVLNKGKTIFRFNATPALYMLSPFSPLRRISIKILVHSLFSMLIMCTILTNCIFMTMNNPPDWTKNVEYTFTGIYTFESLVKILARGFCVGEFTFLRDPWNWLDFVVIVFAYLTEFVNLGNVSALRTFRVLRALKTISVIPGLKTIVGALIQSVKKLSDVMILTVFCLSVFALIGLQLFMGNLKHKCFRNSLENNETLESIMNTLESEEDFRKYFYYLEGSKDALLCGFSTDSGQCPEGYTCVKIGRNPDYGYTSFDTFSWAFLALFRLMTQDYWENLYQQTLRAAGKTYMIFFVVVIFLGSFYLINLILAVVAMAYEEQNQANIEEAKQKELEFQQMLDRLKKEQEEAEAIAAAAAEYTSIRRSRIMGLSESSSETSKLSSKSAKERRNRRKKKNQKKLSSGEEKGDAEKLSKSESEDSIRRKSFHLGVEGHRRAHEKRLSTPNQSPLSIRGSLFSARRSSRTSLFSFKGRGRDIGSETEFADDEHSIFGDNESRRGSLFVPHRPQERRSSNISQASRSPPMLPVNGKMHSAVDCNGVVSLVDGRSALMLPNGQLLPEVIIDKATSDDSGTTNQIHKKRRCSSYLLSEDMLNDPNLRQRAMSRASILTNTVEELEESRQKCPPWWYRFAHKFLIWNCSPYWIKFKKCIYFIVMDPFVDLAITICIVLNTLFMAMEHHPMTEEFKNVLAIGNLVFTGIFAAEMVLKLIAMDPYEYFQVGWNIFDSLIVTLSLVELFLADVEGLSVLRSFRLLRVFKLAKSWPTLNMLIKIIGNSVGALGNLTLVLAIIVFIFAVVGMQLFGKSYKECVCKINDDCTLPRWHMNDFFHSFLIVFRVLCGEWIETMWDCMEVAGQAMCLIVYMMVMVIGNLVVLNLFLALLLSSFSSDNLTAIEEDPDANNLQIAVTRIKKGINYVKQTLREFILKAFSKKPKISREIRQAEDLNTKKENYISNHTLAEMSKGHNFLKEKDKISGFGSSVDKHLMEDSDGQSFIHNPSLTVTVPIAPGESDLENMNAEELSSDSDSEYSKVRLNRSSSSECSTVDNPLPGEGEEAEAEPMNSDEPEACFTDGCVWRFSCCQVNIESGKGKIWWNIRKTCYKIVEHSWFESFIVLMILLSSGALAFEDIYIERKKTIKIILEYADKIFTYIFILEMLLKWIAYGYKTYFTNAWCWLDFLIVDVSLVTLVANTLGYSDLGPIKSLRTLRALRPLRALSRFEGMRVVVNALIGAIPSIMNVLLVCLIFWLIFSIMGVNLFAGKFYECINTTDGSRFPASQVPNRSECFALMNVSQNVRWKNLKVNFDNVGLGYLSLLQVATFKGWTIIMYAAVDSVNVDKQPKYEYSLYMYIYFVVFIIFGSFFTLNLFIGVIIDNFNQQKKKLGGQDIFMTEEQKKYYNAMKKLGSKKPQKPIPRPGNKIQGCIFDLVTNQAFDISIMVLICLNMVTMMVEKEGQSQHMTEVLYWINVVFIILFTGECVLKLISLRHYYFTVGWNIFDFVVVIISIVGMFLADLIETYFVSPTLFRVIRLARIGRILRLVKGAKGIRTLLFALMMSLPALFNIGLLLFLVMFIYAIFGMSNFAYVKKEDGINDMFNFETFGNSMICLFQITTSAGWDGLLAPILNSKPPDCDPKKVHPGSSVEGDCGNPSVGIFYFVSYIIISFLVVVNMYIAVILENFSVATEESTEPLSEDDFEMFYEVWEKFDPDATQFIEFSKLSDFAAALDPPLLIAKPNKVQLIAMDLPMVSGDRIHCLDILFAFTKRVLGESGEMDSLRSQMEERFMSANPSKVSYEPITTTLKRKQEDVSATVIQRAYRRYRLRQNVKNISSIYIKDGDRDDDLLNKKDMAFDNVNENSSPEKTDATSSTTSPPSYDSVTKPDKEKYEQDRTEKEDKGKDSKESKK
Recombinant, Human Sodium Channel, Nav1.7.
Two days prior to the experiment, frozen HEK293 cells stably expressing recombinant human Nav1.7 were quickly thawed and plated at 25,000 cells/well in growth medium [DMEM (Invitrogen #11965) with 10% HI FBS (Invitrogen #10082), 2 mM glutamine, 100 units/mL penicillin, 0.1 mg/mL streptomycin (PSG, Sigma #G1146), and 500 μg/mL Geneticin (Invitrogen #10131)] in black-walled, clear-bottom 384-well poly-D-lysine-coated assay plates (Greiner Bio-One, Frickenhausen, Germany) and incubated in a humidified 5% CO2 incubator at 37° C. On the day of the assay, medium was removed by aspiration, and cells were washed with assay buffer [HBSS (Invitrogen, Carlsbad, Calif.) containing 20 mM HEPES (Invitrogen, Carlsbad, Calif.)]. After washing, 30 μL assay buffer containing the fluorescent voltage-sensor probe CC2-DMPE (Invitrogen, Carlsbad, Calif.) at 20 μM and 0.01% pluronic F-127 (Invitrogen, Carlsbad, Calif.) was added to the cells. Cells were incubated for 40 minutes at room temperature in the dark. Following the incubation, the cells were washed and 30 μL assay buffer containing 2.5 μM DiSBAC2(3) substrate (Invitrogen, Carlsbad, Calif.) and 0.5 mM VABSC-1 (Invitrogen, Carlsbad, Calif.) was added to the cells. The cells were incubated for 90 minutes at room temperature in the dark. Fluorescence readings were made using a FLIPR®^TETRA (Molecular Devices, Sunnyvale Calif.) equipped with voltage-sensor probe optics. At the start of each experiment the optimal (EC80) concentration of depolarizing agent (veratridine) was determined by testing a dilution curve of assay buffer containing veratridine (Sigma-Aldrich, St. Louis, Mo.) and 1 mg/mL scorpion venom (SVqq, from Leiurus quinquestriatus; Sigma-Aldrich, St. Louis, Mo.). […] Test compounds in the daughter plate were diluted to (˜3×) solutions in assay buffer immediately before assaying. Using the FLIPR®^TETRA, 20 μL of the (3×) compound solutions were first added to the cells, then 20 μL of depolarizing solution (3×EC80 veratridine+SVqq) were added 3 minutes later to activate the channel. Changes in fluorescence were measured at wavelengths of 440-480 nm and 565-625 nm over the course of the experimental run. Membrane depolarization was expressed as a ratio of the maximum F440-480 nm/F565-625 nm reading above average baseline F440-480 nm/F565-625 nm reading. IC50 values were calculated from curve fits of the ratio data using a four-parameter logistic Hill equation (Accelrys Assay Explorer 3.3 Client, Accelrys, San Diego, Calif.) with percent inhibition plotted against compound concentration.
With `CC(C)C[C@@H](O)CN1CCN(c2cccc3c2cnn3-c2ccccc2F)C1=O` [Example 155, 1-[1-(2-fluorophenyl)-1H-indazol-4-yl]-3-[(2R)-2-hydroxy-4-methylpentyl]imidazolidin-2-one], the IC50 turned out to be 1880 nM. As for `CC(C)CC(=O)CN1CCCN(c2cccc3c2cnn3-c2ccccc2F)C1=O` [Example 188, 1-[1-(2-fluorophenyl)-1H-indazol-4-yl]-3-(4-methyl-2-oxopentyl)tetrahydropyrimidin-2(1H)-one], the IC50 was 1660 nM. Take `O=C(CN1CCN(c2cccc3c2cnn3-c2ccccc2F)C1=O)N1C[C@@H]2[C@@H]3CC[C@@H](C3)[C@@H]2C1` [Example 111, 1-[1-(2-fluorophenyl)-1H-indazol-4-yl]-3-{2-[(3aR,4R,7S,7aS)-octahydro-2H-4,7-methanoisoindol-2-yl]-2-oxoethyl}imidazolidin-2-one]: the IC50 amounted to 835 nM. Consider `Cc1cncc(CN2CCCN(c3cccc4c3cnn4-c3ccccc3F)C2=O)n1` [Example 259, 1-[1-(2-fluorophenyl)-1H-indazol-4-yl]-3-[(6-methylpyrazin-2-yl)methyl]tetrahydropyrimidin-2(1H)-one], for which the IC50 was determined as 3360 nM. Turning to `CCOCCNC(=O)CN1CCN(c2cccc3c2cnn3-c2ccccc2F)C1=O` [Example 74, N-(2-ethoxyethyl)-2-{3-[1-(2-fluorophenyl)-1H-indazol-4-yl]-2-oxoimidazolidin-1-yl}acetamide], the IC50 was determined as 7540 nM.

For `CC(C)CCC(=O)N1CCN(c2cccc3c2cnn3-c2ccccc2F)C1=O` [Example 76, 1-[1-(2-fluorophenyl)-1H-indazol-4-yl]-3-(4-methylpentanoyl)imidazolidin-2-one], the IC50 was 2290 nM. As for `O=C1N(c2cccc3c2cnn3-c2ccccc2F)CCN1[C@H]1CC[C@H](O)CC1` [Example 265, 1-[1-(2-fluorophenyl)-1H-indazol-4-yl]-3-(trans-4-hydroxycyclohexyl)imidazolidin-2-one], the IC50 stood at 8150 nM. For `O=C1N(Cc2ccc(C(F)(F)F)cn2)CCN1c1cccc2c1cnn2-c1ccccc1F` [Example 89, 1-[1-(2-fluorophenyl)-1H-indazol-4-yl]-3-{[5-(trifluoromethyl)pyridin-2-yl]methyl}imidazolidin-2-one], the IC50 came to 10600 nM. `C[C@H]1CCCN1C(=O)CN1CCCN(c2cccc3c2cnn3-c2ccccc2F)C1=O` [Example 187, 1-[1-(2-fluorophenyl)-1H-indazol-4-yl]-3-{2-[(2S)-2-methylpyrrolidin-1-yl]-2-oxoethyl}tetrahydropyrimidin-2(1H)-one]: the IC50 was 1910 nM. `O=C(CC1CCOC1)CN1CCN(c2cccc3c2cnn3-c2ccccc2F)C1=O` (centres unmarked) [Example 157, 1-[1-(2-fluorophenyl)-1H-indazol-4-yl]-3-[2-oxo-3-(tetrahydrofuran-3-yl)propyl]imidazolidin-2-one]: the IC50 is 3370 nM. The same measure for `O=C1N(Cc2cocn2)CCCN1c1cccc2c1cnn2-c1ccccc1F` [Example 225, 1-[1-(2-fluorophenyl)-1H-indazol-4-yl]-3-(1,3-oxazol-4-ylmethyl)tetrahydropyrimidin-2(1H)-one]: 14000 nM; for `O=C(CN1CCN(c2cccc3c2cnn3-c2ccccc2F)C1=O)C1CCCC1` [Example 144, 1-(2-cyclopentyl-2-oxoethyl)-3-[1-(2-fluorophenyl)-1H-indazol-4-yl]imidazolidin-2-one]: 2100 nM.

`CC(C)CCCC(=O)CN1CCN(c2cccc3c2cnn3-c2ccccc2F)C1=O` [Example 132, 1-[1-(2-fluorophenyl)-1H-indazol-4-yl]-3-(6-methyl-2-oxoheptyl)imidazolidin-2-one]: the IC50 amounted to 713 nM.

As for `C[C@@H]1CCCN1C(=O)CN1CCN(c2cccc3c2cnn3-c2ccccc2F)C1=O` [Example 118, 1-[1-(2-fluorophenyl)-1H-indazol-4-yl]-3-{2-[(2R)-2-methylpyrrolidin-1-yl]-2-oxoethyl}imidazolidin-2-one], the IC50 was 1100 nM. As for `O=C(CN1CCN(c2cccc3c2cnn3-c2ccccc2F)C1=O)N1CCN2CCCC2C1` (centres unmarked) [Example 66, 1-[1-(2-fluorophenyl)-1H-indazol-4-yl]-3-[2-(hexahydropyrrolo[1,2-c]pyrazin-2(1H)-yl)-2-oxoethyl]imidazolidin-2-one], the IC50 was determined as 804 nM. Consider `O=C1N(c2cccc3c2cnn3-c2ccccc2F)CCN1c1cnn2cccnc12` [Example 190, 1-[1-(2-fluorophenyl)-1H-indazol-4-yl]-3-(pyrazolo[1,5-a]pyrimidin-3-yl)imidazolidin-2-one], for which the IC50 came out at 1090 nM. On to `O=C(CN1CCN(c2cccc3c2cnn3-c2ccccc2F)C1=O)c1ccccc1` [Example 143, 1-[1-(2-fluorophenyl)-1H-indazol-4-yl]-3-(2-oxo-2-phenylethyl)imidazolidin-2-one], for which the IC50 worked out at 874 nM.

Take `O=C1N(Cc2ccncc2)CCN1c1cccc2c1cnn2-c1ccccc1F` [Example 210, 1-[1-(2-fluorophenyl)-1H-indazol-4-yl]-3-(pyridin-4-ylmethyl)imidazolidin-2-one]: the IC50 came out at 3330 nM.

For the compound `CCOC(=O)/C=C/N1CCN(c2cccc3c2cnn3-c2ccccc2F)C1=O` [Example 288, ethyl (2E)-3-{3-[1-(2-fluorophenyl)-1H-indazol-4-yl]-2-oxoimidazolidin-1-yl}acrylate], the IC50 is 5300 nM.

As for `COCc1nc(CN2CCN(c3cccc4c3cnn4-c3ccccc3F)C2=O)cs1` [Example 254, 1-[1-(2-fluorophenyl)-1H-indazol-4-yl]-3-{[2-(methoxymethyl)-1,3-thiazol-4-yl]methyl}imidazolidin-2-one], the IC50 stood at 825 nM. As for `CC(C)CC(O)CN1CCCN(c2cccc3c2cnn3-c2ccccc2F)C1=O` (centres unmarked) [Example 186, 1-[1-(2-fluorophenyl)-1H-indazol-4-yl]-3-(2-hydroxy-4-methylpentyl)tetrahydropyrimidin-2(1H)-one], the IC50 was 1410 nM. Take `N#C[C@H]1CCCN1C(=O)CN1CCN(c2cccc3c2cnn3-c2ccccc2F)C1=O` [Example 201, (2R)-1-({3-[1-(2-fluorophenyl)-1H-indazol-4-yl]-2-oxoimidazolidin-1-yl}acetyl)pyrrolidine-2-carbonitrile]: the IC50 stood at 661 nM.

With `CC1CN(C(=O)CN2CCN(c3cccc4c3cnn4-c3ccccc3F)C2=O)CC(C)O1` (centres unmarked) [Example 70, 1-[2-(2,6-dimethylmorpholin-4-yl)-2-oxoethyl]-3-[1-(2-fluorophenyl)-1H-indazol-4-yl]imidazolidin-2-one], the IC50 was 12200 nM.

`O=C1N(c2cccc3c2cnn3-c2ccccc2F)CCN1[C@H]1CO[C@H](c2cccc(F)c2)C1` [Example 196, 1-[1-(2-fluorophenyl)-1H-indazol-4-yl]-3-[(3R,5S)-5-(3-fluorophenyl)tetrahydrofuran-3-yl]imidazolidin-2-one]: the concentration for half-maximal inhibition (IC50) came to 4310 nM.

Regarding `Cc1cnc(CN2CCN(c3cccc4c3cnn4-c3ccccc3F)C2=O)s1` [Example 263, 1-[1-(2-fluorophenyl)-1H-indazol-4-yl]-3-[(5-methyl-1,3-thiazol-2-yl)methyl]imidazolidin-2-one], the IC50 came out at 494 nM.

On to `C=CCCC(C)(O)CN1CCN(c2cccc3c2cnn3-c2ccccc2F)C1=O` (centres unmarked) [Example 146, 1-[1-(2-fluorophenyl)-1H-indazol-4-yl]-3-(2-hydroxy-2-methylhex-5-en-1-yl)imidazolidin-2-one], for which the IC50 came to 3120 nM. As to `CC1COCC(C)N1C(=O)CN1CCN(c2cccc3c2cnn3-c2ccccc2F)C1=O` (centres unmarked) [Example 101, 1-[2-(3,5-dimethylmorpholin-4-yl)-2-oxoethyl]-3-[1-(2-fluorophenyl)-1H-indazol-4-yl]imidazolidin-2-one], the IC50 was found to be 3520 nM.

For `C[C@@H](NC(=O)CN1CCN(c2cccc3c2cnn3-c2ccccc2F)C1=O)c1ccccc1` [Example 176, 2-{3-[1-(2-fluorophenyl)-1H-indazol-4-yl]-2-oxoimidazolidin-1-yl}-N-[(1R)-1-phenylethyl]acetamide], the IC50 was found to be 983 nM. For `CO[C@H](CC(C)C)CN1CCN(c2cccc3c2cnn3-c2ccccc2F)C1=O` [Example 214, 1-[1-(2-fluorophenyl)-1H-indazol-4-yl]-3-[(2R)-2-methoxy-4-methylpentyl]imidazolidin-2-one], the IC50 turned out to be 2020 nM.
